Like-named read-outs stand apart in the source and are kept apart here.
What was measured:
[1] = tested on: erythrocytic stages of P. falciparum NF54; test: Plasmodium falciparum in vitro assay, [3H] hypoxanthine incorporation; type: cell-based; details: Plasmodium falciparum, Erythrocyte, 72 h, P. falciparum NF54 in human red blood cells, 48 h + 24 h incubation
Procedure, shortened: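 Cultures in human red blood cells (2.5% hematocrit, 0.3% parasitemia) were exposed to serially diluted compounds for 48 h at 37° C. under 4% CO2, 3% O2, 93% N2. [3H] hypoxanthine (0.5 μCi) was added for a further 24 h, incorporation counted by scintillation, and IC50 derived from sigmoidal inhibition curves.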

[2] = tested on: P. berghei strain GFP-ANKA; test: In vivo antimalarial efficacy study in infected NMRI mice; details: Plasmodium berghei; female NMRI mice infected with P. berghei GFP-ANKA; single oral dose of 100 mg/kg 24 h after infection; parasitemia 48 h after drug treatment (day 3); read-out: Activity (inhibition of parasitemia) expressed as a percent relative to the control group
Procedure, shortened: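 Female NMRI mice, in groups of three, were infected i.v. on day 0 with 2×10^7 P. berghei GFP-ANKA parasitized erythrocytes. At 24 h they received one oral 100 mg/kg dose in Tween 80/ethanol (7%/3%). Parasitemia was counted by FACS on day 3, and activity was given as percent reduction versus controls.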

[3] = screening medium with Albumax (5 g/L), read-out: IC50 on NF54 (with Albumax)
[4] = screening medium with human serum (50% final concentration), read-out: IC50 on NF54 (with 50% Serum)

Compound	IC50 [1, 3] [nM]	IC50 [1, 4] [nM]	inhibition in vivo at 100 mg/kg [2] [%]
CC(=O)N1CCN(c2ccc(CN(C(=O)C=Cc3ccc(S(C)(=O)=O)cc3)[C@@H](Cc3ccccc3)C(=O)N3CCN(Cc4ccccc4)CC3)cc2)CC1 [Example 6, (S)-N-[4-(4-Acetyl-piperazin-1-yl)-benzyl]-N-[1-benzyl-2-(4-benzyl-piperazin-1-yl)-2-oxo-ethyl]-3-(4-methanesulfonyl-phenyl)-acrylamide]	9.4	32	80.4
CC(=O)Nc1ccc(C=CC(=O)N(Cc2ccc(N3CCN(C(C)=O)CC3)cc2)[C@@H](Cc2ccccc2)C(=O)N2CCN(Cc3ccccc3)CC2)cc1 [Example 7, (S)-3-(4-Acetylamino-phenyl)-N-[4-(4-acetyl-piperazin-1-yl)benzyl]-N-[1-benzyl-2-(4-benzyl-piperazin-1-yl)-2-oxo-ethyl]-acrylamide]	3.1	40	44.7
CC(=O)N1CCN(c2ccc(CN(C(=O)C=Cc3ccc(C(C)(C)C)cc3)[C@@H](Cc3ccccc3)C(=O)N3CCN(Cc4ccc(N(C)C)cc4)CC3)cc2)CC1 [Example 22, (S)-N-[4-(4-Acetyl-piperazin-1-yl)-benzyl]-N-{1-benzyl-2-[4-(4-dimethylamino-benzyl)-piperazin-1-yl]-2-oxo-ethyl}-3-(4-tert-butyl-phenyl)-acrylamide]	1.3	10.9	99.3
CC(=O)N1CCN(c2ccc(CN(C(=O)C=Cc3ccc(C(C)(C)C)cc3)[C@@H](Cc3ccccc3)C(=O)N3CCN(Cc4ccc(N(C)CCO)cc4)CC3)cc2)CC1 [Example 62, (S)-N-[4-(4-Acetyl-piperazin-1-yl)-benzyl]-N-[1-benzyl-2-(4-{4-[(2-hydroxy-ethyl)-methyl-amino]-benzyl}-piperazin-1-yl)-2-oxo-ethyl]-3-(4-tert-butyl-phenyl)-acrylamide]	0.7	3.2	99.4
CC(=O)N1CCN(c2ccc(CN(C(=O)C=Cc3ccc(OC(F)F)cc3)[C@@H](Cc3ccccc3)C(=O)N3CCN(Cc4ccc(Cl)cc4)CC3)cc2)CC1 [Example 41, (S)-N-[4-(4-Acetyl-piperazin-1-yl)-benzyl]-N-{1-benzyl-2-[4-(4-chloro-benzyl)-piperazin-1-yl]-2-oxo-ethyl}-3-(4-difluoromethoxy-phenyl)-acrylamide]	2.9	12.5	71
CC(=O)N1CCN(c2ccc(CN(C(=O)C=Cc3ccc(C(F)(F)F)cc3)[C@@H](Cc3ccccc3)C(=O)N3CCN(Cc4ccc(N(C)CCO)cc4)CC3)cc2)CC1 [Example 50, (S)-N-[4-(4-Acetyl-piperazin-1-yl)-benzyl]-N-[1-benzyl-2-(4-{4-[(2-hydroxy-ethyl)-methyl-amino]-benzyl}-piperazin-1-yl)-2-oxo-ethyl]-3-(4-trifluoromethyl-phenyl)-acrylamide]	1.6	9.3	98
CCOc1ccc(C=CC(=O)N(Cc2ccc(N3CCN(C(C)=O)CC3)cc2)[C@@H](Cc2ccccc2)C(=O)N2CCN(Cc3ccccc3)CC2)cc1 [Example 4, (S)-N-[4-(4-Acetyl-piperazin-1-yl)-benzyl]-N-[1-benzyl-2-(4-benzyl-piperazin-1-yl)-2-oxo-ethyl]-3-(4-ethoxy-phenyl)-acrylamide]	1.9	10	97.4

Source: patent US8889688B2, “Piperazines as antimalarial agents” (Actelion Pharmaceuticals Ltd., priority 2011, dated 2014)
